Tests used:
α-L-iduronidase = α-L-iduronidase activity assay in MEF cells from homozygous Idua-W402X mice; assay type: cell-based, Mouse; settings: 48 hours; escin 0.25 to 160 μM, doxorubicin 5 to 160 μM
Method: α-L-iduronidase activity was determined as follows. Cell extracts were obtained from mouse embryonic fibroblast (MEF) cells homozygous for the W402X mutation and immortalized using the SV40 Large T antigen using a lentiviral expression system. α-L-iduronidase activity was determined as described by Wang et al. (Wang, D. et al., 2012; Mol Genet Metab 105: 116-125). Briefly, 4-methyl-umbelliferone iduronide (FMU) was added to the cell lysate as a substrate at low pH (for example, 130 mM sodium formate buffer, pH 3.5). The reaction was incubated for 72 h at 37° C. after which the reaction was quenched by the addition of high pH buffer (for example, glycine-NaOH buffer, pH 10.8). The fluorescence of the cleaved free FMU molecule was immediately measured at 365 nm excitation and 450 nm emission using a fluorometer and the amount of active iduronidase was expressed as nmol FMU released/mg protein/hour.
After 48 hours, cell lysates were obtained and the activity of MEF α-L-iduronidase was determined. Enhancement of PTC read-through by the compounds of the present disclosure was determined by an increase in α-L-iduronidase activity.

[1] = test system: mouse embryonic fibroblasts (MEF); settings: 48 h
FRT W1282X^HRP cells = assay: HRP CFTR expression assay, W1282X; assay type: cell-based, Rat; settings: 48 hours; escin 10 μM, VX-809 3 μM
Method: (§1) To measure cell surface expression of CFTR, FRT cells expressing the fusion protein of G542X CFTR and HRP were treated with 10 μM of lead compounds for 48 hours at 37° C. and 5% CO2. Holding DMSO concentration at 0.3%, FRT cells were washed 4 times in PBS supplemented with 1 mM MgCl2 and 0.1 mM CaCl2 and then incubated with the HRP substrate (Fisher, #PI-34096, 15 μl/well) at room temperature for 10 minutes. The luminescent HRP signal was analyzed via a Synergy NEO microplate reader (BioTek Instruments).
(§2) The effect of the read-through stimulating compounds of the present disclosure in combination with the CFTR corrector VX-809 was further examined in FRT cells with the G542X, Y122X and W1282X mutations. Enhancement of PTC read-through by the compounds of the present disclosure was determined by an increase in CFTR conductance (FIGS. 13A-13C) or an increase in CFTR protein expression at the cell surface (FIGS. 14A-14C). CFTR conductance also indicated the CFTR was functional as a result of the read-through of the PTC.

FRT Y122X^HRP cells = assay: HRP CFTR expression assay, Y122X; assay type: cell-based, Rat; settings: 48 hours; escin 10 μM, VX-809 3 μM
Method: as §1, §2

decrease of total protein concentrations [1]	Structure (SMILES)	α-L-iduronidase activity as compared to vehicle control (α-L-iduronidase)	CFTR protein expression at the cell surface (FRT W1282X^HRP cells)	CFTR protein expression at the cell surface (FRT Y122X^HRP cells)
about 40%	COc1cccc2c1C(=O)c1c(O)c3c(c(O)c1C2=O)C[C@@](O)(C(=O)CO)C[C@@H]3O[C@H]1C[C@H](N)[C@H](O)[C@H](C)O1 [Doxorubicin, DOXORUBICIN]	dose-dependent increase		
	Cc1ccc(NC(=O)C2(c3ccc4c(c3)OC(F)(F)O4)CC2)nc1-c1cccc(C(=O)O)c1 [VX-809]		significant stimulatory effects	significant stimulatory effects
